Assay results taken from PMC6199744, “Development of Chemical Proteomics for the Folateome and Analysis of the Kinetoplastid Folateome” (ACS Infectious Diseases, 2018).
Read-outs that look alike come from different tables or passages of the source.

Tests used:
Type in all cases: binding
[1] = molecular target: T1, HeLa cell extract proteins (Homo sapiens, UniProt Q9BSE5)
T1 construct: endogenous in cells; host or cells: HeLa cell extract
T1 sequence (Q9BSE5 36-352): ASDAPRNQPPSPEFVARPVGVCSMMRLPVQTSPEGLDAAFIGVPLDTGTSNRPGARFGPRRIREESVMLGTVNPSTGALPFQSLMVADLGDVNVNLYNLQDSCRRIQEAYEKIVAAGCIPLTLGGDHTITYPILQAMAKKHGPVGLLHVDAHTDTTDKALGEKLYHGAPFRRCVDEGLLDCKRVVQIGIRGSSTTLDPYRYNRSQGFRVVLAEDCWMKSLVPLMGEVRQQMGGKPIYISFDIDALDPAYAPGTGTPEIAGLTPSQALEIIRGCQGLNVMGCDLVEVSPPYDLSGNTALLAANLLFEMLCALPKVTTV

[2] = molecular target: T2, HeLa cell extract proteins (Homo sapiens, UniProt Q15386)
T2 construct: endogenous in cells; host or cells: HeLa cell extract
T2 sequence (Q15386 1-1083): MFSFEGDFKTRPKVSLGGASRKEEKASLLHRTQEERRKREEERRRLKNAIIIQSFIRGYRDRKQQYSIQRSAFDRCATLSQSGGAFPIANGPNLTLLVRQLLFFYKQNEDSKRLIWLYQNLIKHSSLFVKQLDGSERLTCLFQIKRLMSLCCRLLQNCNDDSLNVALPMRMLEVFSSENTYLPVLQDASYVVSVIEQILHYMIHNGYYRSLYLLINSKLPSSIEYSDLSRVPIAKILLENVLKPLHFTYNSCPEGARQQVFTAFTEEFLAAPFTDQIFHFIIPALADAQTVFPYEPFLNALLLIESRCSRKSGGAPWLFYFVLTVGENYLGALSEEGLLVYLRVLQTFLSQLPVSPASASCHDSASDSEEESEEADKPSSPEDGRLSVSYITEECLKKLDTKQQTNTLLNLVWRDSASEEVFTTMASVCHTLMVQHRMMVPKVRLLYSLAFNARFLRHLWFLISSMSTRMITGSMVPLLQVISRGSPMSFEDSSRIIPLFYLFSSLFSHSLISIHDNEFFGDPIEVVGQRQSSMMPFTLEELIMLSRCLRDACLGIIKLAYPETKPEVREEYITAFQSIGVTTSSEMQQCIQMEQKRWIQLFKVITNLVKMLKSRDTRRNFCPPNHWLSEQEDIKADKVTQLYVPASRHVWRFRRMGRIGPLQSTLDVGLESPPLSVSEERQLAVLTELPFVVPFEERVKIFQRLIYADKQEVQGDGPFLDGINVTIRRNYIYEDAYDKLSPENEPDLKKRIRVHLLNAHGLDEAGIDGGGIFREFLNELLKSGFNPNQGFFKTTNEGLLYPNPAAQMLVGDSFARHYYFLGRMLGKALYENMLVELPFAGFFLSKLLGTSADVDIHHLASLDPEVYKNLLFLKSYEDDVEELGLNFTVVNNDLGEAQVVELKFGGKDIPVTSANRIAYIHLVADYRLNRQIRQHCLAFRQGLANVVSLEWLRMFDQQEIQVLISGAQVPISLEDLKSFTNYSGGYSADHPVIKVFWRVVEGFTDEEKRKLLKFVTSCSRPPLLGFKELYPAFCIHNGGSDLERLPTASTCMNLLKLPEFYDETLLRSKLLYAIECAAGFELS

[3] = molecular target: T3, HeLa cell extract proteins (Homo sapiens, UniProt P60660); conditions: HeLa; protein MYL6
T3 construct: endogenous in cells; host or cells: HeLa cell extract
T3 sequence (P60660 1-151): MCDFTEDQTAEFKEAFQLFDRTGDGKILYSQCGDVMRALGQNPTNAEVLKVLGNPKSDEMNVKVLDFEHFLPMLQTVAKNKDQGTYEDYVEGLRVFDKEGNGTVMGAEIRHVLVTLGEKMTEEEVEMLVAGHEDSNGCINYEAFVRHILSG

[4] = molecular target: T4, HeLa cell extract proteins (Homo sapiens, UniProt P49257); conditions: protein LMAN1; HeLa
T4 construct: endogenous in cells; host or cells: HeLa cell extract
T4 sequence (P49257 31-510): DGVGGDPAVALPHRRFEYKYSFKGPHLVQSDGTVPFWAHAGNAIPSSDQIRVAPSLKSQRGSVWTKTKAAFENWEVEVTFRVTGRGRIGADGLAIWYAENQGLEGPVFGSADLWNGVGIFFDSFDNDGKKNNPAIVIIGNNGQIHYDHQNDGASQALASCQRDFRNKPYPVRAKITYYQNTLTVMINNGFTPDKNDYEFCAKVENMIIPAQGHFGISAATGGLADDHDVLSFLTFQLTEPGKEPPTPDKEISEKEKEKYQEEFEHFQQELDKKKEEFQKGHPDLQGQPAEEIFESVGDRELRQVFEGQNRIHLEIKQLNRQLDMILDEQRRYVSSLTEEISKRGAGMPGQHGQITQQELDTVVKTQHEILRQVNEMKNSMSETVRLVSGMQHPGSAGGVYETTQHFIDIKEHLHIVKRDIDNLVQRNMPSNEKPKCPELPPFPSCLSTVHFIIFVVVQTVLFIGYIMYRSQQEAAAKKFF

[5] = molecular target: T5, HeLa cell extract proteins (Homo sapiens, UniProt P36957); conditions: protein DLST; HeLa
T5 construct: endogenous in cells; host or cells: HeLa cell extract
T5 sequence (P36957 68-453): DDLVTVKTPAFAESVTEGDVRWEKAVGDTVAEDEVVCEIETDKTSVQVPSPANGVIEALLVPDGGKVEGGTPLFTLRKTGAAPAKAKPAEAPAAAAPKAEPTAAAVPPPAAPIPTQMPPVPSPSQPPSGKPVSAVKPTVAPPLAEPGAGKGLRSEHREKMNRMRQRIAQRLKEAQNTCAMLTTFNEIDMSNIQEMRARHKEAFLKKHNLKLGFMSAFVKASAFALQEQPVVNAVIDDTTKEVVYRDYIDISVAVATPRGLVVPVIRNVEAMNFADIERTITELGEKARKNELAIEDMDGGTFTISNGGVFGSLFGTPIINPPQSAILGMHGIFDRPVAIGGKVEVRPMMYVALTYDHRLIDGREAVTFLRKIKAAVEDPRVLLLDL

[6] = molecular target: T6, HeLa cell extract proteins (Homo sapiens, UniProt P22061); conditions: protein PCMT1; HeLa
T6 construct: endogenous in cells; host or cells: HeLa cell extract
T6 sequence (P22061 whole entry): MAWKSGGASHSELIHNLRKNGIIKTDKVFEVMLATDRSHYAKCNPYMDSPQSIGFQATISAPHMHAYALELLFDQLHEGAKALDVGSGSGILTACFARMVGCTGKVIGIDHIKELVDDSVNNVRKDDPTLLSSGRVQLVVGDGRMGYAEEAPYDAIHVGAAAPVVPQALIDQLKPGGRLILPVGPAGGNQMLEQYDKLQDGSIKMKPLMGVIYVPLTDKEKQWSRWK

[7] = molecular target: T7, HeLa cell extract proteins (Homo sapiens, UniProt P50748); conditions: HeLa; protein KNTC1
T7 construct: endogenous in cells; host or cells: HeLa cell extract
T7 sequence (P50748 whole entry): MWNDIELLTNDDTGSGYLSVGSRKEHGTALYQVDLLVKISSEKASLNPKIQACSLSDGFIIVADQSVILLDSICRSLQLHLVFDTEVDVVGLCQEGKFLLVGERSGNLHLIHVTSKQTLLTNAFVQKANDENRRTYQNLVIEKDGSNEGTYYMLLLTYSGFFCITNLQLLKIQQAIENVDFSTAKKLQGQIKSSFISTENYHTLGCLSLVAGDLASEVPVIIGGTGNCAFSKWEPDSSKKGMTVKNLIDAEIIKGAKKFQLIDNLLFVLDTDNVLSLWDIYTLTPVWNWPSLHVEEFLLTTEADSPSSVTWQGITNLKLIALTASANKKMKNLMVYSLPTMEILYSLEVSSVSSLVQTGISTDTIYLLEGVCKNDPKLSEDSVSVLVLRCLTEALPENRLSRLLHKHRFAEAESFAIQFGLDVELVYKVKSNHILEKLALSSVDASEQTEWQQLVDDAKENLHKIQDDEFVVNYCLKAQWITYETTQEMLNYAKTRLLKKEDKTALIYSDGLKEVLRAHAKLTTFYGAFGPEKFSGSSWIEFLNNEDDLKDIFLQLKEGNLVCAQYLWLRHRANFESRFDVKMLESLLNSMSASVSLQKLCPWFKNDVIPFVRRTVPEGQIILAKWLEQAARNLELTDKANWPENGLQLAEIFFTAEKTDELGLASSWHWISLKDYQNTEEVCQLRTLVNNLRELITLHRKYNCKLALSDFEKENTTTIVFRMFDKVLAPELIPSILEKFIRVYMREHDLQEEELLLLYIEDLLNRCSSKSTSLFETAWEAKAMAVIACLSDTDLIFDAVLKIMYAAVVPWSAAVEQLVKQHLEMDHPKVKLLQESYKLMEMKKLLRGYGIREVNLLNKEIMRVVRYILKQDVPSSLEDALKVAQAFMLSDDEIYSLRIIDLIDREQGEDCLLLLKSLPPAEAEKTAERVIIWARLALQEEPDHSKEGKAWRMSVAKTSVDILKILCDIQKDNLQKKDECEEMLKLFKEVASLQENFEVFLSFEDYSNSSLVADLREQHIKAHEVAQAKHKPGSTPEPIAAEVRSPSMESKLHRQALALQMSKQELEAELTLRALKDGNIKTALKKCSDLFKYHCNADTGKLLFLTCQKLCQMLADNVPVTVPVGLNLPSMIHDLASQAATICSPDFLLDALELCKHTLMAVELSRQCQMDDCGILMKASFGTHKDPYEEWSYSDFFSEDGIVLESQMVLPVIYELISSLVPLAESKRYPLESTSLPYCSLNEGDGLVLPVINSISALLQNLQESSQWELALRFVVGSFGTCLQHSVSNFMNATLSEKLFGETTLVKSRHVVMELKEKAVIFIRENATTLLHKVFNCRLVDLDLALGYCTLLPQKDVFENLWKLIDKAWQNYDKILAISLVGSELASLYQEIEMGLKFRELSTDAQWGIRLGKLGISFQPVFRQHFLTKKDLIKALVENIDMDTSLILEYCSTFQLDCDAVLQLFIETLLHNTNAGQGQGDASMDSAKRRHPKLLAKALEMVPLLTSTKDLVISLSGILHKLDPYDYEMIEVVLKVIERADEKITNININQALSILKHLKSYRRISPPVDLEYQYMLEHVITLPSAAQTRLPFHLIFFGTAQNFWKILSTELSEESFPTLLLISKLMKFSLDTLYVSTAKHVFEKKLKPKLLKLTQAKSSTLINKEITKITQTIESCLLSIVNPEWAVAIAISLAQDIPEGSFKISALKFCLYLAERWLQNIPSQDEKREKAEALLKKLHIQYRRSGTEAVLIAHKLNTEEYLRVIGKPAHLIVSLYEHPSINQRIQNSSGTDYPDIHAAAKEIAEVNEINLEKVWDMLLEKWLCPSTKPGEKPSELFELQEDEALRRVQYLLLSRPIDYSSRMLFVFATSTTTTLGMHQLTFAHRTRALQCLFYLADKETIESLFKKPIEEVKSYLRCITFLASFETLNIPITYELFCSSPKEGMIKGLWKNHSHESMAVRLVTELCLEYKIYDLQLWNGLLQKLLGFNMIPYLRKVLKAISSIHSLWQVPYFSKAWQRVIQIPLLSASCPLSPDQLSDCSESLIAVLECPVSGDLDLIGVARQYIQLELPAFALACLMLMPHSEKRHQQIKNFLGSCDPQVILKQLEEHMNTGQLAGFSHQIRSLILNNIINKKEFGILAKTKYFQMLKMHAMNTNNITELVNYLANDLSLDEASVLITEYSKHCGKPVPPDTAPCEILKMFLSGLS

Nc1nc2c(c(=O)[nH]1)N(C=O)C(CNc1ccc(C(=O)N[C@@H](CCC(=O)O)C(=O)O)cc1)CN2 (some centres unmarked) [LEU, leucovorin]
fold changes relative to vehicle control ([1]; protein AGMAT, HeLa): 0.84
fold changes relative to vehicle control ([2]; HeLa, protein UBE3C): 0.91

Nc1nc2[nH]cc(CCc3ccc(C(=O)N[C@@H](CCC(=O)O)C(=O)O)cc3)c2c(=O)[nH]1 [PTX, pemetrexed]
fold changes relative to vehicle control [1]: 0.89
fold changes relative to vehicle control [2]: 0.96

CCCCCCOc1ccc(Cc2cnc(N)nc2N)cc1 [compound 1]
fold changes relative to vehicle control [3]: 1.14
fold changes relative to vehicle control [4]: 1.17
fold changes relative to vehicle control [5]: 1.31
fold changes relative to vehicle control [6]: 0.92
fold changes relative to vehicle control [7]: 1.15

CCCCCCOc1cccc(Cc2cnc(N)nc2N)c1 [compound 2]
fold changes relative to vehicle control [3]: 1.3
fold changes relative to vehicle control [4]: 1.57
fold changes relative to vehicle control [5]: 1.34
fold changes relative to vehicle control [6]: 1.28
fold changes relative to vehicle control [7]: 1.13

Nc1nc2cccc(-c3ccccc3)c2n1Cc1ccc(Cl)c(Cl)c1 [compound 3]
fold changes relative to vehicle control [3]: 1.11
fold changes relative to vehicle control [4]: 0.87
fold changes relative to vehicle control [5]: 1.17
fold changes relative to vehicle control [6]: 0.88
fold changes relative to vehicle control [7]: 1.17

NCCOCCOCC(=O)Nc1nc2ncc(CNc3ccc(C(=O)NC(CCC(=O)O)C(=O)O)cc3)nc2c(=O)[nH]1 (centres unmarked) [compound 6]
fold changes relative to vehicle control ([1]; protein AGMAT, HeLa): 0.97
fold changes relative to vehicle control ([2]; HeLa, protein UBE3C): 1.01

NCCCNc1ccc(C(=O)NC(CCC(=O)O)C(=O)O)cc1 (centres unmarked) [compound 7]
fold changes relative to vehicle control ([1]; protein AGMAT, HeLa): 0.93
fold changes relative to vehicle control ([2]; HeLa, protein UBE3C): 1.04
